In paper PMC6158578, “Optimization and Lead Selection of Benzothiazole Amide Analogs Toward a Novel Antimycobacterial Agent” (Frontiers in Microbiology, 2018):
≈ marks a conversion by molar mass, not a printed value. Like-named read-outs stand apart in the source and are kept apart here.

What was measured:
Intracellular Mtb = experiment: microbe, parasite or virus in culture; assay type: cell-based, M. tuberculosis; details: Mycobacterium tuberculosis
[1] = system: E. coli ATCC 25922 + PMBN (permeabilized); experiment: MIC, spectrum of activity; assay type: cell-based; details: Escherichia coli, ATCC25922
M. abscessus 79 = experiment: MIC in MHB versus 7H9+OADC; assay type: cell-based
[2] = system: M. tuberculosis H37Rv mc^2 6206; experiment: microbe, parasite or virus in culture; assay type: cell-based; details: Mycobacterium tuberculosis, 168 h
[3] = system: M. chelonae (n = 11) clinical isolates; experiment: MIC against rapid-growing NTM clinical isolates; assay type: cell-based; details: M. chelonae (n = 11)
Other NTM (n = 12) = experiment: MIC against rapid-growing NTM clinical isolates; assay type: cell-based; details: Other NTM (n = 12)
M. avium 101 = experiment: MIC, Middlebrook medium (7H9 + OADC, 7 days); assay type: cell-based; details: Mycobacterium avium, 168 h; M. avium 101; read-out: MIC
M. fortuitum 41 = experiment: MIC, broth microdilution with resazurin (MHB, 3 days); assay type: cell-based; details: Mycolicibacterium fortuitum; M. fortuitum 41; read-out: MIC
[4] = 50% complement-inactivated human serum
M. abscessus ATCC 19977 = experiment: MIC, broth microdilution with resazurin (MHB, 3 days); assay type: cell-based; details: Mycobacteroides abscessus, ATCC19977; M. abscessus ATCC 19977; read-out: MIC
Mtb H37Rv = assay type: cell-based, M. tuberculosis
CYP2B6 = target: T1, CYP2B6 (Homo sapiens, UniProt P20813); experiment: CYP inhibition in human liver microsomes; assay type: in vitro ADME
T1 construct: incubated with human liver microsomes in buffer containing 2 mM NADPH and probe substrate; from tissue; host or cells: human liver microsomes
T1 sequence (P20813 1-491): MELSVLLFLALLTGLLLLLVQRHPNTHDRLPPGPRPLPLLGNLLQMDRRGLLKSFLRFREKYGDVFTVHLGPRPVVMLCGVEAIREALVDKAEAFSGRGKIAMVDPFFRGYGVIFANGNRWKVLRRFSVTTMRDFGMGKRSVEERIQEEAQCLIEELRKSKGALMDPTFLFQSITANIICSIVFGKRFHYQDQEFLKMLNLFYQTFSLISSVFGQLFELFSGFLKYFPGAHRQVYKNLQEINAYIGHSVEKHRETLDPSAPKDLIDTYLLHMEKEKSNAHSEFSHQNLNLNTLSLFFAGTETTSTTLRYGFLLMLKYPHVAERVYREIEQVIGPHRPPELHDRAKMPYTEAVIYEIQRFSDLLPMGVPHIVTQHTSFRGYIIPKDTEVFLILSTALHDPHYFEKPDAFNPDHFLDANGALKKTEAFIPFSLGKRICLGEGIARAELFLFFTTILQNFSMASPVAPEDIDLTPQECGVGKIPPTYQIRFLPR
Protocol: (§1) ADMET assays were performed through NIAID Preclinical Services and Eurofins. Potential for cytotoxicity was monitored in HepG2 cells after 72 h growth in the presence of test compounds, either prepared as 10-point 3-fold serial dilutions or at a fixed 10 μM concentration. Cell viability was measured using the CellTiter-Glo® Luminescent Cell Viability Assay (Promega) or via fluorescent image analysis. Cytotoxicity was expressed as IC50 or as percent reduction of viable cells relative to a reference compound. Metabolic stability of compounds was evaluated via incubation with human liver microsomes at 37°C and quantitative analysis of parent compound by LC-MS/MS in samples removed at 0, 5, 15, 30, and 45 min (Obach, [1999]). For cytochrome P450 (CYP) inhibition assays, compounds were prepared as a 7-point dilution series and incubated with human liver microsomes in buffer containing 2 mM NADPH and probe substrate. […] Thermodynamic solubility of compounds in aqueous media was determined by incubation in 50 mM potassium phosphate buffer (pH 7.4) for 24 h, followed by HPLC-UV detection of compound in the filtrate (Analiza, Cleveland, OH, United States).

CYP3A = experiment: CYP inhibition in human liver microsomes; assay type: in vitro ADME
Protocol: as §1

[5] = system: mycolic acid transfer in Mabs ATCC19977; experiment: Metabolic labeling with [14C]acetate; assay type: cell-based, M. abscessus; details: 2x and 10x MIC
[6] = system: M. abscessus (n = 20) clinical isolates; experiment: MIC against rapid-growing NTM clinical isolates; assay type: cell-based; details: M. abscessus (n = 20)
HepG2 cytotoxicity, 72 h = assay type: cell-based; details: human, HepG2 cells, HepG2, 72 h, read-out: HepG2 cytotox., IC50
Protocol: as §1

M. intracellulare 1956 = experiment: MIC, Middlebrook medium (7H9 + OADC, 7 days); assay type: cell-based; details: Mycobacterium intracellulare, 168 h; M. intracellulare 1956; read-out: MIC
M. chelonae 93 = experiment: MIC, broth microdilution with resazurin (MHB, 3 days); assay type: cell-based; details: Mycobacteroides chelonae; M. chelonae 93; read-out: MIC
E. faecalis ATCC 29212 = experiment: MIC, spectrum of activity; assay type: cell-based; details: Enterococcus faecalis, ATCC29212; E. faecalis ATCC 29212; read-out: MIC
equine erythrocytes = experiment: Hemolysis assay; details: up to 128 μg/mL, 10 min, room temperature
Mtb = experiment: microbe, parasite or virus in culture; assay type: cell-based, M. tuberculosis; details: Mycobacterium tuberculosis
M. abscessus 21 = experiment: MIC in MHB versus 7H9+OADC; assay type: cell-based
M. chimaera 1502055 = experiment: MIC, Middlebrook medium (7H9 + OADC, 7 days); assay type: cell-based; details: 168 h; M. chimaera 1502055; read-out: MIC
S. aureus ATCC 29213 = experiment: MIC, spectrum of activity; assay type: cell-based; details: Staphylococcus aureus, ATCC29213; S. aureus ATCC 29213; read-out: MIC
[7] = Mouse oral PK and tolerability; assay type: in vivo, female CD-1 mice; details: oral 100 mg/kg

## CC12CC3CC(C)(C1)CC(C(=O)Nc1nc4ccc(OC(F)(F)F)cc4s1)(C3)C2 [CRS400226]
Intracellular Mtb
  IC90: 0.8 µg/mL (≈ 1.88 µM)
[1]
  MIC: > 64 µg/mL
M. abscessus 79; M. abscessus 79, 7H9 + OADC (5 mg/mL albumin)
  MIC: 2 µg/mL
M. abscessus 79; M. abscessus 79, MHB
  MIC: 0.25 µg/mL (≈ 0.589 µM)
[2]
  MIC: 0.5 µg/mL (≈ 1.18 µM)
[3]
  MIC range: 0.5–0.5 μg/mL
[3]; Mycobacteroides chelonae, read-out: MIC90
  MIC90: 0.5 µg/mL (≈ 1.18 µM)
Other NTM (n = 12)
  MIC range: 0.12 to 1 µg/mL
Other NTM (n = 12); read-out: MIC90
  MIC90: 0.5 µg/mL (≈ 1.18 µM)
M. avium 101
  MIC: 2 µg/mL
M. fortuitum 41
  MIC: 0.12 µg/mL (≈ 0.283 µM)
[4]
  Protein (serum) binding: >95%
M. abscessus ATCC 19977
  MIC: 0.25 µg/mL (≈ 0.589 µM)
Mtb H37Rv
  reduction in Mtb in time-kill assay: 3 Log10 CFU
  time-kill kinetics, result in words: bactericidal activity
CYP2B6
  inhibition at 10 µM: < 50%
CYP3A
  inhibition at 10 µM: < 50%
[5]
  effect on mycolic acid transfer to arabinogalactan and trehalose dimycolates: concentration-dependent inhibition of mycolic acid transfer
[6]
  MIC range: 0.25 to 2 µg/mL
[6]; Mycobacteroides abscessus, read-out: MIC90
  MIC90: 0.5 µg/mL (≈ 1.18 µM)
HepG2 cytotoxicity, 72 h
  IC50 at 72 h: 69 µM
HepG2 cytotoxicity, 72 h; value in brackets
  IC50 at 72 h: 29 µg/mL
M. intracellulare 1956
  MIC: 1 µg/mL
M. chelonae 93
  MIC: 0.5 µg/mL (≈ 1.18 µM)
E. faecalis ATCC 29212
  MIC: > 64 µg/mL
Equine erythrocytes
  Hemolysis: 128 µg/mL
Mtb
  MBC: 10.6 µg/mL (≈ 25 µM)
M. abscessus 21; M. abscessus 21, 7H9 + OADC (5 mg/mL albumin)
  MIC: 8 µg/mL
M. abscessus 21; M. abscessus 21, MHB
  MIC: 0.25 µg/mL (≈ 0.589 µM)
M. chimaera 1502055
  MIC: 1 µg/mL
S. aureus ATCC 29213
  MIC: > 64 µg/mL
[7]; mouse, plasma, female CD-1 mice, 1 h, read-out: plasma level
  concentration at 1 h: 2300 ng/mL
[7]; mouse, plasma, female CD-1 mice, 8 h, read-out: plasma level
  concentration at 8 h: 2000 ng/mL
[7]; mice
  tolerability of oral dosing: highly tolerated
